From patent US9474790B2, “Stable, protracted GLP-1/glucagon receptor co-agonists for medical use” (Novo Nordisk A/S, priority 2013, dated 2016) come the findings set out here.

Usually IC50 stands for the concentration that gives 50% inhibition.

Data set [1] in a line: Chemical stability assessment by RP-UPLC. It is filed as physicochemical. Conditions: 333 μM, 8 mM phosphate buffer pH 7.3, 37° C. vs 5° C. The procedure, abridged: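 Purity loss = (purity after 14 days at 5° C. minus that at 37° C.) relative to the 5° C. value, purity being main-peak area % by RP-UPLC with UV at 215 nm. Samples were 333 μM in 8 mM phosphate, pH 7.3; gradient adjusted for outlying retention times.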

The target of another data set is T1, human GLP-1 receptor (Homo sapiens, UniProt P43220).
T1 construct: expressed in transfected cells; host or cells: BHK cells (parent BHKTS13), clone FCW467-12A/KZ10-1, with CRE luciferase
T1 sequence (P43220 24-463): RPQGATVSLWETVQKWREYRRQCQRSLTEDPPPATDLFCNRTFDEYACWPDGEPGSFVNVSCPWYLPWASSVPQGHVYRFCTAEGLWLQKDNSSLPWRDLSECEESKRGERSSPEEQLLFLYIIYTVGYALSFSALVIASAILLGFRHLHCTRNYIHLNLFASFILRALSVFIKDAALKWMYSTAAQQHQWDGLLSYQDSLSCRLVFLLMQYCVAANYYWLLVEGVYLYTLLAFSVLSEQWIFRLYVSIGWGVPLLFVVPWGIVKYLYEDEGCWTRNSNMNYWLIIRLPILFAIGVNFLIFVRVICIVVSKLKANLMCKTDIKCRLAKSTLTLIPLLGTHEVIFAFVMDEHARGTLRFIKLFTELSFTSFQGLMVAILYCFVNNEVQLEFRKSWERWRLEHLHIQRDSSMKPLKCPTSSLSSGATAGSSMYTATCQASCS
As to the kind of experiment: GLP-1 receptor binding, 125I-GLP-1 displacement SPA on isolated membranes. Particulars: displacement of 125I-GLP-1 from membranes; read-out: IC50 GLP-1R. The procedure, abridged:
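Test derivatives, serially diluted, competed with 125I-GLP-1(7-36)NH2 for the human GLP-1 receptor on BHK membranes, read by WGA-bead scintillation proximity after 2 h at 30°C, pH 7.4 HEPES/EGTA/MgCl2 buffer. Final serum albumin was either ≤0.001% or 2.0%; IC50 from non-linear fit.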
Background: Displacement assays read how much labelled ligand stays bound in the presence of the test substance.

Numbered stars: 1 amine (or outer) side, 2 acyl side, 3 side chain; on linkers, the order of the positions; unused ones are H or OH. Square brackets hold non-standard residues; d marks the D form. Side chains are listed from the residue outwards. Peptide text beside a SMILES is read from it. * marks the point of attachment. C18 diacid = O=C(O)CCCCCCCCCCCCCCCCC(=O)*; γGlu = O=C(O)[C@H](CCC(=O)[*:2])N[*:1]; Ac4c = NC1(C(=O)O)CCC1; AEEA = NCCOCCOCC(=O)O; Aib = CC(C)(N)C(=O)O

As to `CC(C)C[C@H](NC(=O)[C@H](Cc1ccc(O)cc1)NC(=O)[C@H](CCCCN)NC(=O)[C@H](CO)NC(=O)[C@H](CC(C)C)NC(=O)[C@H](CC(=O)O)NC(=O)[C@H](CO)NC(=O)[C@@H](NC(=O)[C@H](Cc1ccccc1)NC(=O)[C@@H](NC(=O)CNC(=O)[C@H](CCC(N)=O)NC(=O)C(C)(C)NC(=O)[C@@H](N)Cc1c[nH]cn1)[C@@H](C)O)[C@@H](C)O)C(=O)N[C@@H](CC(=O)O)C(=O)N[C@@H](C)C(=O)N[C@@H](CCCNC(=N)N)C(=O)N[C@@H](CCCNC(=N)N)C(=O)N[C@@H](C)C(=O)N[C@@H](CCCNC(=N)N)C(=O)N[C@@H](CCC(=O)O)C(=O)N[C@@H](Cc1ccccc1)C(=O)N[C@H](C(=O)N[C@@H](CCC(N)=O)C(=O)N[C@@H](Cc1c[nH]c2ccccc12)C(=O)N[C@@H](CC(C)C)C(=O)N[C@@H](CC(C)C)C(=O)N[C@@H](CC(N)=O)C(=O)N[C@@H](CCCCNC(=O)CC[C@H](NC(=O)CC[C@H](NC(=O)COCCOCCNC(=O)CC[C@H](NC(=O)CCCCCCCCCCCCCCCCC(=O)O)C(=O)O)C(=O)O)C(=O)O)C(N)=O)C(C)C` [Example 39, N^ε29-[(4S)-4-carboxy-4-[[(4S)-4-carboxy-4-[[2-[2-[2-[[(4S)-4-carboxy-4-(17-carboxyheptadecanoylamino)butanoyl]amino]ethoxy]ethoxy]acetyl]amino]butanoyl]amino]butanoyl]-[Aib2,Leu10,Ala16,Arg20,Glu21,Leu27,Lys29]-Glucagon amide] (H-H[Aib]QGTFTSDLSKYLDARRAREFVQWLLNK([γGlu-γGlu-AEEA-γGlu-C18 diacid])-NH2; N-terminus assumed), the “Purity loss; 14 days at 37° C.” value in data set [1] turned out to be 3%. For the same molecule, on human GLP-1 receptor, the IC50 is 300 pM.
Regarding `CC(C)C[C@H](NC(=O)[C@H](Cc1ccc(O)cc1)NC(=O)[C@H](CCCCN)NC(=O)[C@H](CO)NC(=O)[C@H](CC(C)C)NC(=O)[C@H](CC(=O)O)NC(=O)[C@H](CO)NC(=O)[C@@H](NC(=O)[C@H](Cc1ccccc1)NC(=O)[C@@H](NC(=O)CNC(=O)[C@H](CCC(N)=O)NC(=O)C1(NC(=O)[C@@H](N)Cc2c[nH]cn2)CCC1)[C@@H](C)O)[C@@H](C)O)C(=O)N[C@@H](CCC(=O)O)C(=O)N[C@@H](CO)C(=O)N[C@@H](CCCCN)C(=O)N[C@@H](CCCNC(=N)N)C(=O)N[C@@H](C)C(=O)N[C@@H](CCCNC(=N)N)C(=O)N[C@@H](CCC(=O)O)C(=O)N[C@@H](Cc1ccccc1)C(=O)N[C@H](C(=O)N[C@@H](CCC(N)=O)C(=O)N[C@@H](Cc1c[nH]c2ccccc12)C(=O)N[C@@H](CC(C)C)C(=O)N[C@@H](CC(C)C)C(=O)N[C@@H](CCCCNC(=O)CC[C@H](NC(=O)CC[C@H](NC(=O)[C@H](CO)NC(=O)[C@H](CCC(=O)O)NC(=O)[C@H](CO)NC(=O)CC[C@H](NC(=O)CC[C@H](NC(=O)CCCCCCCCCCCCCCCCC(=O)O)C(=O)O)C(=O)O)C(=O)O)C(=O)O)C(=O)N[C@H](C(N)=O)[C@@H](C)O)C(C)C` [Example 68, N^ε28-[(4S)-4-carboxy-4-[[(4S)-4-carboxy-4-[[(2S)-2-[[(2S)-4-carboxy-2-[[(2S)-2-[[(4S)-4-carboxy-4-[[(4S)-4-carboxy-4-(17-carboxyheptadecanoylamino)butanoyl]amino]butanoyl]amino]-3-hydroxypropanoyl]amino]butanoyl]amino]-3-hydroxypropanoyl]amino]butanoyl]amino]butanoyl]-[Acb2,Leu10,Glu15,Lys17,Arg20,Glu21,Leu27,Lys28]-Glucagon amide] (H-H[Ac4c]QGTFTSDLSKYLESKRAREFVQWLLK([γGlu-γGlu-Ser-Glu-Ser-γGlu-γGlu-C18 diacid])T-NH2; N-terminus assumed), in data set [1], the “Purity loss; 14 days at 37° C.” value came out at 3%. For the same molecule, the IC50 at human GLP-1 receptor was 300 pM.
